According to ChEMBL document CHEMBL1152581, “Delta-di-carboxybutyl phosphoramidate of 2'-deoxycytidine-5'-monophosphate as substrate for DNA polymerization by HIV-1 reverse transcriptase” (Bioorg Med Chem, 2009):
Activity calls are given as the source filed them. No cut-off for these calls is given here.

Columns and labels:
[1] = molecular target: Human immunodeficiency virus type 1 reverse transcriptase (Human immunodeficiency virus 1) (UniProt Q72547); assay: Activity at HIV1 reverse transcriptase assessed as elongation of DNA primer up to 120 mins at 1 mM by single nucleotide incorporation assay
[2] = molecular target: Human immunodeficiency virus type 1 reverse transcriptase (Human immunodeficiency virus 1) (UniProt Q72547); assay: Activity at HIV1 reverse transcriptase assessed as elongation of DNA primer after 60 mins at 500 uM by single nucleotide incorporation assay
[3] = molecular target: Human immunodeficiency virus type 1 reverse transcriptase (Human immunodeficiency virus 1) (UniProt Q72547); assay: Activity at HIV1 reverse transcriptase assessed as elongation of DNA primer up to 120 mins at 500 uM by single nucleotide incorporation assay
[4] = molecular target: Human immunodeficiency virus type 1 reverse transcriptase (Human immunodeficiency virus 1) (UniProt Q72547); assay: Activity at HIV1 reverse transcriptase assessed as elongation of DNA primer after 60 mins by single nucleotide incorporation assay

Activity [1] [%]	Activity [2] [%]	Activity [3] [%]	Activity [4]	Structure (SMILES)
60	54	60		Nc1ccn([C@H]2C[C@H](O)[C@@H](COP(=O)(O)NCCCC(C(=O)O)C(=O)O)O2)c(=O)n1
			inactive	Nc1ccn([C@@H]2O[C@H](COP(=O)(O)NCCCC(C(=O)O)C(=O)O)C[C@H]2O)c(=O)n1
	82			Nc1ncnc2c1ncn2[C@H]1C[C@H](O)[C@@H](COP(=O)(O)N[C@@H](CC(=O)O)C(=O)O)O1
